The experiment deals with Kv1.3 potassium channel (Homo sapiens (Human), UniProt P22001). In words: Kv1.3 potassium channel blocker activity, automated whole-cell patch clamp in CHO-K1 cells stably expressing Kv1.3. It is filed as cell-based. Conditions: Patchliner patch clamp. Here is the method: Example 21. Evaluation of Kv1.3 Potassium Channel Blocker Activities
This assay is used to evaluate the disclosed compounds' activities as Kv1.3 potassium channel blockers.
CHO-K1 cells stably expressing Kv1.3 were grown in DMEM containing 10% heat-inactivated FBS, 1 mM sodium pyruvate, 2 mM L-glutamine, and G418 (500 μg/ml). Cells were grown in culture flasks at 37° C. in a 5% C02-humidified incubator.
The cells were bathed in an extracellular solution containing 140 mM NaCl, 4 mM KCl, 2 mM CaCl2), 1 mM MgCl2, 5 mM glucose, 10 mM HEPES; pH adjusted to 7.4 with NaOH; 295-305 mOsm. The internal solution contained 50 mM KCl, 10 mM NaCl, 60 mM KF, 20 mM EGTA, 10 mM HEPES; pH adjusted to 7.2 with KOH; 285 mOsm. All compounds were dissolved in DMSO at 30 mM. Compound stock solutions were freshly diluted with external solution to concentrations of 30 nM, 100 nM, 300 nM, 1 μM, 3 μM, 10 μM, 30 μM and 100 μM. The highest content of DMSO (0.3%) was present in 100 μM.
The currents were evoked by applying 100 ms depolarizing pulses from −90 mV (holding potential) to +40 mV were applied with 0.1 Hz frequency. Control (compound-free) and compound pulse trains for each compound concentration applied contained 20 pulses. 10-second breaks were used between pulse trains (see Table A below).
Whole-cell current recordings and compound application were enabled by means of an automated patch clamp platform Patchliner (Nanion Technologies GmbH). EPC 10 patch clamp amplifier (HEKA Elektronik Dr. Schulze GmbH) along with Patchmaster software (HEKA Elektronik Dr. Schulze GmbH) was used for data acquisition. Data were sampled at 10 kHz without filtering. Passive leak currents were subtracted online using a P/4 procedure (HEKA Elektronik Dr. Schulze GmbH). Increasing compound concentrations were applied consecutively to the same cell without washouts in between. Total compound incubation time before the next pulse train was not longer than 10 seconds. Peak current inhibition was observed during compound equilibration.
AUC and peak values were obtained with Patchmaster (HEKA Elektronik Dr. Schulze GmbH). To determine IC50, the last single pulse in the pulse train corresponding to a given compound concentration was used. Obtained AUC and peak values in the presence of compound were normalized to control values in the absence of compound. Using Origin (OridinLab), IC50 was derived from data fit to Hill equation: Icompound/Icontrol=(100-A)/(1+([compound]/IC50)nH)+A, where IC50 value is the concentration at which current inhibition is half-maximal, [compound] is the applied compound concentration, A is the fraction of current that is not blocked and nH is the Hill coefficient.
(The patch-clamp technique gives a direct electrical read-out from membranes.)

Some results are limits rather than exact numbers.

Chain of Kv1.3 potassium channel (P22001 whole entry): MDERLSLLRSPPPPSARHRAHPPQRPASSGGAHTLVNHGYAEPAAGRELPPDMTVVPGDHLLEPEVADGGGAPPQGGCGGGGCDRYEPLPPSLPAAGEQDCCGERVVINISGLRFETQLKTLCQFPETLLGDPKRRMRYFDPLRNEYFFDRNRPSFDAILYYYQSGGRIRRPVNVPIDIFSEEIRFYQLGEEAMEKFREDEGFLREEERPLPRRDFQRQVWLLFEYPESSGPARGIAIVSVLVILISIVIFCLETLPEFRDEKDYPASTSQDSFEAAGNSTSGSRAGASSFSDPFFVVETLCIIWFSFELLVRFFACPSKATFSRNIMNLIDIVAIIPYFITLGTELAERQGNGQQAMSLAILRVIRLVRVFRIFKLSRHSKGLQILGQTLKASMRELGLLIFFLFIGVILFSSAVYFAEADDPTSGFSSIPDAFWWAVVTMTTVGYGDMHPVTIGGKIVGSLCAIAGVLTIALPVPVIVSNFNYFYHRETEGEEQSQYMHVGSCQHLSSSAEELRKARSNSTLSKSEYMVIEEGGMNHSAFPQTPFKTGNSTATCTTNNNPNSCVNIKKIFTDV

`NC(=O)[C@H](C1CC1)[C@H]1CN[C@@H](c2c(O)ccc(Cl)c2Cl)C1` (single isomer, unassigned) [Compound 78]: the IC50 – broadly, the concentration that inhibits the measured activity by half – is < 100 nM.

`CC1(CO)CN(C(=O)C[C@H]2CN[C@@H](c3c(O)ccc(Cl)c3Cl)C2)C1` [Compound 69, 2-((3S,5R)-5-(2,3-dichloro-6-hydroxyphenyl)pyrrolidin-3-yl)-1-(3-(hydroxymethyl)-3-methylazetidin-1-yl)ethan-1-one]: the IC50 was < 1000 nM. For `O=C(C[C@H]1CN[C@@H](c2c(O)ccc(Cl)c2Cl)C1)N1CC(CO)(CO)C1` [Compound 70, 1-(3,3-bis(hydroxymethyl)azetidin-1-yl)-2-((3S,5R)-5-(2,3-dichloro-6-hydroxyphenyl)pyrrolidin-3-yl)ethan-1-one], the IC50 is < 1000 nM.

As for `C[C@@H](CO)NC(=O)C[C@H]1CN[C@@H](c2c(O)ccc(Cl)c2Cl)C1` [Compound 62, 2-((3S,5R)-5-(2,3-dichloro-6-hydroxyphenyl)pyrrolidin-3-yl)-N-((S)-1-hydroxypropan-2-yl)acetamide], the IC50 is < 1000 nM.

Turning to `O=C(C[C@H]1CN[C@@H](c2c(O)ccc(Cl)c2Cl)C1)N1CCC[C@H](O)C1` [Compound 59, 2-((3S,5R)-5-(2,3-dichloro-6-hydroxyphenyl)pyrrolidin-3-yl)-1-((S)-3-hydroxypiperidin-1-yl)ethan-1-one], the IC50 was < 1000 nM.

For the compound `C[C@@]1(CC(N)=O)CN[C@@H](c2c(O)ccc(Cl)c2Cl)C1` [Compound 50, 2-[5R-(2,3-dichloro-6-hydroxyphenyl)-3-methylpyrrolidin-3-yl]acetamide], the IC50 was < 1000 nM. For `NC(=O)[C@@H](C1CC1)[C@H]1CN[C@@H](c2c(O)ccc(Cl)c2Cl)C1` (single isomer, unassigned) [Compound 79], the IC50 was < 1000 nM. The result for `CC[C@@H](C(N)=O)[C@@H]1CN[C@@H](c2c(O)ccc(Cl)c2Cl)C1` (single isomer, unassigned) [Compound 73] reads < 1000 nM; that for `O=C(C[C@H]1CN[C@@H](c2c(O)ccc(Cl)c2Cl)C1)N1CC(CO)C1` [Compound 60, 2-((3S,5R)-5-(2,3-dichloro-6-hydroxyphenyl)pyrrolidin-3-yl)-1-(3-(hydroxymethyl)azetidin-1-yl)ethan-1-one], < 1000 nM.

Take `CC[C@H](C(N)=O)[C@@H]1CN[C@@H](c2c(O)ccc(Cl)c2Cl)C1` (single isomer, unassigned) [Compound 72]: the IC50 is < 1000 nM. With `O=C(C[C@H]1CN[C@@H](c2c(O)ccc(Cl)c2Cl)C1)N1CCC(O)CC1` [Compound 57, 2-((3S,5R)-5-(2,3-dichloro-6-hydroxyphenyl)pyrrolidin-3-yl)-1-(4-hydroxypiperidin-1-yl)ethan-1-one] the figure was < 1000 nM. With `NC(=O)C[C@@H]1CN[C@@H](c2c(O)ccc(Cl)c2Cl)C1` [Compound 32, 2-[(3R,5R)-5-(2,3-dichloro-6-hydroxyphenyl)pyrrolidin-3-yl]acetamide] the figure was < 1000 nM. With `CC(C)(C(N)=O)[C@@H]1CN[C@@H](c2c(O)ccc(Cl)c2Cl)C1` [Compound 51, 2-[(3R,5R)-5-(2,3-dichloro-6-hydroxyphenyl)pyrrolidin-3-yl]-2-methylpropanamide] the figure was < 1000 nM.

The values above are taken from US20240368078A1, “ARYL HETEROCYCLIC COMPOUNDS AS Kv1.3 POTASSIUM SHAKER CHANNEL BLOCKERS” (D.E. SHAW RESEARCH, LLC, priority 2021, published 2024).
